Reference: US11046694B2, “Compounds and methods for treating bacterial infections” (Entasis Therapeutics, Inc., priority 2018, dated 2021)
In brackets after ≈: the same amount, converted by molar mass. Structures can show the parent of a compound that is named as a salt.

Legend:
P. aeruginosa PBP1a = P. aeruginosa PBP1a (Pseudomonas aeruginosa, UniProt Q07806); type: biochemical; conditions: P. aeruginosa PBP1a 60 nM, BOCILLIN FL 30 nM, pH 7.0
P. aeruginosa PBP2 = biological target: T1, P. aeruginosa PBP2 (Pseudomonas aeruginosa, UniProt Q9X6V3); type: biochemical; conditions: P. aeruginosa PBP2 300 nM, BOCILLIN FL 30 nM, pH 6.2
T1 sequence (Q9X6V3 1-646): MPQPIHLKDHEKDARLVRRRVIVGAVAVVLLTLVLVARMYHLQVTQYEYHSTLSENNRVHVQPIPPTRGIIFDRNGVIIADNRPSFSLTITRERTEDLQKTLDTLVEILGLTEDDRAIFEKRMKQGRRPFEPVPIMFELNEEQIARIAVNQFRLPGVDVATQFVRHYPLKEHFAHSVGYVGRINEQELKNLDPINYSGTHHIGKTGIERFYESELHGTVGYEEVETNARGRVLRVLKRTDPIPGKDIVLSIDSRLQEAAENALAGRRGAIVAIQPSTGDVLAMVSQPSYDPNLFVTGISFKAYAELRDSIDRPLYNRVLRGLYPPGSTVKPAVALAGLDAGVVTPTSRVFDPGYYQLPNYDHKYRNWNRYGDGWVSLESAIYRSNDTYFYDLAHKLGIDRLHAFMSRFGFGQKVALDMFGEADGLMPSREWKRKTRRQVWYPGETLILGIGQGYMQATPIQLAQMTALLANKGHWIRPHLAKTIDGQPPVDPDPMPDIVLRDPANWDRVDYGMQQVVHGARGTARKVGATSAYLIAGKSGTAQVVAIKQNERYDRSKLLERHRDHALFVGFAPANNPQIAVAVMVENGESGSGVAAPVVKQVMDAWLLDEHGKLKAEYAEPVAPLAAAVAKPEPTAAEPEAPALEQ

P. aeruginosa PBP3 = P. aeruginosa PBP3 (Pseudomonas aeruginosa, UniProt G3XD46); type: biochemical; conditions: P. aeruginosa PBP3 60 nM, BOCILLIN FL 30 nM, pH 7.0
E. coli (ATCC25922) = test: MIC against E. coli; conditions: for MIC: Escherichia coli, ATCC25922, read-out: E. coli MIC (ATCC25922) (mg/L)
[1] = system: K. pneumoniae (ATCC700603); test: MIC against K. pneumoniae; conditions: for MIC: Klebsiella pneumoniae, ATCC700603, read-out: K. pneumoniae MIC (ATCC700603)
A. baumannii (ARC3495) = test: MIC against A. baumannii; conditions: for MIC: Acinetobacter baumannii, read-out: A. baumannii MIC (ARC3495) (mg/L)
P. aeruginosa WT (PAO1) = test: MIC, CLSI broth microdilution, P. aeruginosa; type: cell-based; conditions: CLSI broth microdilution; for MIC: Pseudomonas aeruginosa, PAO1, read-out: P. aeruginosa WT (PAO1) MIC

Sequence of P. aeruginosa PBP3 (G3XD46 whole entry): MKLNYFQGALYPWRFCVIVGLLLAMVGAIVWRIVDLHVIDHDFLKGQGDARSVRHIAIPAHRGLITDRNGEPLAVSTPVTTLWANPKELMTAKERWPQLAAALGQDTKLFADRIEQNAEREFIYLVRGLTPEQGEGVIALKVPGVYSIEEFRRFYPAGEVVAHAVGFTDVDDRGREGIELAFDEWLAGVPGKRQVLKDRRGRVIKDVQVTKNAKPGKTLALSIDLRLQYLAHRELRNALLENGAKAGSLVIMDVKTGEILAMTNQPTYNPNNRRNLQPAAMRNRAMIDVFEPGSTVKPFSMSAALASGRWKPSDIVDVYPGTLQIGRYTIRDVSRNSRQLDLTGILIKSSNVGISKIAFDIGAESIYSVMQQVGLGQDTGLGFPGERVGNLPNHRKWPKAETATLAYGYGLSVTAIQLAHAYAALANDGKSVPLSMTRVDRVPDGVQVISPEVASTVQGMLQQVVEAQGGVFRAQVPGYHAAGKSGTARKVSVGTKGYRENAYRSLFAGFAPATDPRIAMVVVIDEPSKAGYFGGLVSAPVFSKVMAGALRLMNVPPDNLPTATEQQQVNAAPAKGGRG
Sequence of P. aeruginosa PBP1a (Q07806 whole entry): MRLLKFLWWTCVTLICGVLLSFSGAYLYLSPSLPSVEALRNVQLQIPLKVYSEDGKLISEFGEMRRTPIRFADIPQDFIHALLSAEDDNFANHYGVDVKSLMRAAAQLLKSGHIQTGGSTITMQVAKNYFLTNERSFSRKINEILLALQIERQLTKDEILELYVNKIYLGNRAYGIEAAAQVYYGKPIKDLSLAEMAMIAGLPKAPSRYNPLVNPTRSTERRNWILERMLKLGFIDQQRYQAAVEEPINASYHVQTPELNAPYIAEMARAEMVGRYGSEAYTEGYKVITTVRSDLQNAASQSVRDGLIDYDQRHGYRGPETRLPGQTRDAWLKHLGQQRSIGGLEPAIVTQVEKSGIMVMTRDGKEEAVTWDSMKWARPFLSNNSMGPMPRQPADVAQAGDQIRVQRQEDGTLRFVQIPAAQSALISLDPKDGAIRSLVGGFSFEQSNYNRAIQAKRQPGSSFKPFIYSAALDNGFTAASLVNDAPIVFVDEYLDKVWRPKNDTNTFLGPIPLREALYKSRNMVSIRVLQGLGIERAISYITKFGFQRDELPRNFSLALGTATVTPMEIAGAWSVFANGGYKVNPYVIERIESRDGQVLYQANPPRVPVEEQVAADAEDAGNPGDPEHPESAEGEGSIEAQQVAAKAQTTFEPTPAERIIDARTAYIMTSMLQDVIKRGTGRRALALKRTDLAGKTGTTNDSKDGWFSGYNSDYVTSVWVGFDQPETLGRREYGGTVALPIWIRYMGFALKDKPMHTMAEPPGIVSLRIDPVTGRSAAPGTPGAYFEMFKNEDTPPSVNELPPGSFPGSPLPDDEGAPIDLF

Row | Structure (SMILES) | MIC (E. coli (ATCC25922)) [mg/L] | MIC [1] [µg/mL] | MIC (A. baumannii (ARC3495)) [mg/L] | MIC (P. aeruginosa WT (PAO1)) [µg/mL] | E. coli MIC (ATCC25922) (mg/L) (E. coli (ATCC25922)) | K. pneumoniae MIC (ATCC700603) [1] | A. baumannii MIC (ARC3495) (mg/L) (A. baumannii (ARC3495)) | P. aeruginosa WT (PAO1) MIC (mg/L) (P. aeruginosa WT (PAO1)) | PBP1a acylation rate, k(on) (M^−1 · s^−1) (P. aeruginosa PBP1a) | PBP2 acylation rate, k(on) (M^−1 · s^−1) (P. aeruginosa PBP2) | PBP3 acylation rate, k(on) (M^−1 · s^−1) (P. aeruginosa PBP3)
1 | CN/C(=N\OCCCCN)[C@@H]1c2c(cnn2C)[C@@H]2CN1C(=O)N2OS(=O)(=O)O (racemic) [Example 6] | 8 to 16 (≈ 19.2 to 38.3 µM) | > 16 | > 16 | 8 to 16 (≈ 19.2 to 38.3 µM) | – | – | – | – | * (* represents a k(on) < 100 M^−1 · s^−1) | * (* represents a k(on) < 100 M^−1 · s^−1) | ** (** represents a k(on) of 100 to 10,000 M^−1 · s^−1)
2 | CC(=O)O/N=C(\N)[C@@H]1c2c(cnn2C)[C@@H]2CN1C(=O)N2OS(=O)(=O)O [Example 70, Pyridium (4R,8S)-8-((Z)—N′-acetoxycarbamimidoyl)-1-methyl-6-oxo-4,8-dihydro-1H-4,7-methanopyrazolo[3,4-e][1,3]diazepin-5(6H)-yl hydrogen sulfate] | 8 to 16 | > 16 | > 16 | > 16 | – | – | – | – | * (* represents a k(on) < 100 M^−1 · s^−1) | * (* represents a k(on) < 100 M^−1 · s^−1) | ** (** represents a k(on) of 100 to 10,000 M^−1 · s^−1)
3 | CN/C(=N\OC(N)=O)[C@@H]1c2c(cnn2C)[C@@H]2CN1C(=O)N2OS(=O)(=O)O (racemic) [Example 14, pyridium (4R,8S)-8-((Z)—N′-(carbamoyloxy)-N-methylcarbamimidoyl)-1-methyl-6-oxo-4,8-dihydro-1H-4,7-methanopyrazolo[3,4-e][1,3]diazepin-5(6H)-yl hydrogen sulfate] | < 8 | < 8 | 8 to 16 | < 8 | – | – | – | – | ** (** represents a k(on) of 100 to 10,000 M^−1 · s^−1) | * (* represents a k(on) < 100 M^−1 · s^−1) | *** (*** represents a k(on) > 10,000 M^−1 · s^−1)
4 | Cn1ncc2c1[C@@H](/C(C#N)=N/O)N1C[C@@H]2N(OS(=O)(=O)O)C1=O (racemic) [Example 13] | < 8 | > 16 | > 16 | > 16 | – | – | – | – | * (* represents a k(on) < 100 M^−1 · s^−1) | * (* represents a k(on) < 100 M^−1 · s^−1) | ** (** represents a k(on) of 100 to 10,000 M^−1 · s^−1)
5 | CN/C(=N\O)[C@@H]1c2c(cnn2C/C=N/OCCN)[C@@H]2CN1C(=O)N2OS(=O)(=O)O (racemic) [Example 49, 1-((E)-2-((2-aminoethoxy)imino)ethyl)-8-((Z)—N′-hydroxy-N-methylcarbamimidoyl)-6-oxo-4,8-dihydro-1H-4,7-methanopyrazolo[3,4-e][1,3]diazepin-5(6H)-yl hydrogen sulfate] | 8 to 16 | 8 to 16 | 8 to 16 | < 8 | – | – | – | – | * (* represents a k(on) < 100 M^−1 · s^−1) | – | *** (*** represents a k(on) > 10,000 M^−1 · s^−1)

Further lines, with some results ahead:

Row | MIC (E. coli (ATCC25922)) [mg/L] | MIC [1] [µg/mL] | MIC (A. baumannii (ARC3495)) [mg/L] | MIC (P. aeruginosa WT (PAO1)) [µg/mL] | E. coli MIC (ATCC25922) (mg/L) (E. coli (ATCC25922)) | K. pneumoniae MIC (ATCC700603) [1] | A. baumannii MIC (ARC3495) (mg/L) (A. baumannii (ARC3495)) | P. aeruginosa WT (PAO1) MIC (mg/L) (P. aeruginosa WT (PAO1)) | Structure (SMILES) | PBP1a acylation rate, k(on) (M^−1 · s^−1) (P. aeruginosa PBP1a) | PBP2 acylation rate, k(on) (M^−1 · s^−1) (P. aeruginosa PBP2) | PBP3 acylation rate, k(on) (M^−1 · s^−1) (P. aeruginosa PBP3)
6 | 8 to 16 (≈ 23 to 45.9 µM) | 8 to 16 (≈ 23 to 45.9 µM) | > 16 | > 16 | – | – | – | – | Cn1ncc2c1[C@@H](/C(=N/O)NO)N1C[C@@H]2N(OS(=O)(=O)O)C1=O (racemic) [Example 10] | * (* represents a k(on) < 100 M^−1 · s^−1) | * (* represents a k(on) < 100 M^−1 · s^−1) | ** (** represents a k(on) of 100 to 10,000 M^−1 · s^−1)
7 | < 8 | > 16 | > 16 | > 16 | – | – | – | – | Cn1ncc2c1[C@@H](/C(=N/O)NCc1nc(N)cs1)N1C[C@@H]2N(OS(=O)(=O)O)C1=O [Example 51, (4R,8S)-8-((Z)—N-((4-aminothiazol-2-yl)methyl)-N′-hydroxycarbamimidoyl)-1-methyl-6-oxo-4,8-dihydro-1H-4,7-methanopyrazolo[3,4-e][1,3]diazepin-5(6H)-yl hydrogen sulfate] | ** (** represents a k(on) of 100 to 10,000 M^−1 · s^−1) | * (* represents a k(on) < 100 M^−1 · s^−1) | ** (** represents a k(on) of 100 to 10,000 M^−1 · s^−1)
8 | < 8 | > 16 | > 16 | > 16 | – | – | – | – | CNC(=O)[C@@H]1c2c(cnn2C)[C@@H]2CN1C(=O)N2OS(=O)(=O)O [Comparator 2, reference compound] | * (* represents a k(on) < 100 M^−1 · s^−1) | * (* represents a k(on) < 100 M^−1 · s^−1) | ** (** represents a k(on) of 100 to 10,000 M^−1 · s^−1)
9 | 8 to 16 (≈ 20.5 to 41.1 µM) | 8 to 16 (≈ 20.5 to 41.1 µM) | > 16 | 8 to 16 (≈ 20.5 to 41.1 µM) | – | – | – | – | CN/C(=N\OCCN)[C@@H]1c2c(cnn2C)[C@@H]2CN1C(=O)N2OS(=O)(=O)O (racemic) [Example 7] | * (* represents a k(on) < 100 M^−1 · s^−1) | * (* represents a k(on) < 100 M^−1 · s^−1) | ** (** represents a k(on) of 100 to 10,000 M^−1 · s^−1)
10 | 8 to 16 | 8 to 16 | 8 to 16 | > 16 | – | – | – | – | CN(C)/C(=N\O)[C@@H]1c2c(cnn2C)[C@@H]2CN1C(=O)N2OS(=O)(=O)O [Example 2, (4R,8S)-8-((Z)—N′-hydroxy-N,N-dimethylcarbamimidoyl)-1-methyl-6-oxo-4,8-dihydro-1H-4,7-methanopyrazolo[3,4-e][1,3]diazepin-5(6H)-yl hydrogen sulfate] | ** (** represents a k(on) of 100 to 10,000 M^−1 · s^−1) | * (* represents a k(on) < 100 M^−1 · s^−1) | *** (*** represents a k(on) > 10,000 M^−1 · s^−1)
11 | – | – | – | – | *** (*** represents an MIC < 8 mg/L) | * (* represents an MIC > 16 mg/L) | * (* represents an MIC > 16 mg/L) | * (* represents an MIC > 16 mg/L) | Cn1ncc2c1[C@@H](C1=NOC(Cc3ccccc3)C1)N1C[C@@H]2N(OS(=O)(=O)O)C1=O (mixture of isomers) [Example 37] | * (* represents a k(on) < 100 M^−1 · s^−1) | * (* represents a k(on) < 100 M^−1 · s^−1) | ** (** represents a k(on) of 100 to 10,000 M^−1 · s^−1)
12 | < 8 | > 16 | > 16 | > 16 | – | – | – | – | CN/C(=N\OC(=O)NCCCCNC(=O)C(F)(F)F)[C@@H]1c2c(cnn2C)[C@@H]2CN1C(=O)N2OS(=O)(=O)O [Example 45, (4R,8S)-1-methyl-8-((Z)—N-methyl-N′-(((4-(2,2,2-trifluoroacetamido)butyl)carbamoyl)oxy)carbamimidoyl)-6-oxo-4,8-dihydro-1H-4,7-methanopyrazolo[3,4-e][1,3]diazepin-5(6H)-yl hydrogen sulfate] | ** (** represents a k(on) of 100 to 10,000 M^−1 · s^−1) | – | *** (*** represents a k(on) > 10,000 M^−1 · s^−1)
13 | < 8 | 8 to 16 (≈ 17.9 to 35.8 µM) | > 16 | 8 to 16 (≈ 17.9 to 35.8 µM) | – | – | – | – | CN/C(=N\OC(=O)NCC(=O)O)[C@@H]1c2c(cnn2C)[C@@H]2CN1C(=O)N2OS(=O)(=O)O (racemic) [Example 22] | ** (** represents a k(on) of 100 to 10,000 M^−1 · s^−1) | – | *** (*** represents a k(on) > 10,000 M^−1 · s^−1)
